Test results as given in the NIST ThermoML archive (doi:10.1021/je500458e).
Numbers after ± are expanded uncertainties.

Test: mn = molality of the nth substance listed, in mol/kg
Conditions: 298.15 K, Liquid

`O=c1[nH]cnc2c1ncn2[C@H]1C[C@H](O)[C@@H](CO)O1` [2'-deoxyinosine] + O gave a speed of sound (100 kPa, m1 = 0.02199) of 1498.1 ± 1.5 m/s, a speed of sound (100 kPa, m1 = 0.02301) of 1498.2 ± 1.5 m/s and a speed of sound (100 kPa, m1 = 0.024) of 1498.3 ± 1.5 m/s. The speed of sound (100 kPa, m1 = 0.02493) was 1498.3 ± 1.5 m/s, the speed of sound (100 kPa, m1 = 0.02599) was 1498.4 ± 1.5 m/s and the speed of sound (100 kPa, m1 = 0.02701) was 1498.5 ± 1.5 m/s. For the same compound, the speed of sound (100 kPa, m1 = 0.02813) was 1498.6 ± 1.5 m/s, the speed of sound (100 kPa, m1 = 0.02896) was 1498.6 ± 1.5 m/s and the speed of sound (100 kPa, m1 = 0.02994) was 1498.7 ± 1.5 m/s. For the same compound, the speed of sound (10000 kPa, m1 = 0.02283) was 1514.8 ± 0.64 m/s, the speed of sound (10000 kPa, m1 = 0.0239) was 1514.9 ± 0.64 m/s and the speed of sound (10000 kPa, m1 = 0.02481) was 1514.9 ± 0.64 m/s. The speed of sound (10000 kPa, m1 = 0.02661) was 1515 ± 0.64 m/s, the speed of sound (10000 kPa, m1 = 0.02749) was 1515.1 ± 0.64 m/s and the speed of sound (10000 kPa, m1 = 0.02755) was 1515.1 ± 0.64 m/s. For the same compound, the speed of sound (10000 kPa, m1 = 0.02877) was 1515.2 ± 0.64 m/s, the speed of sound (10000 kPa, m1 = 0.02944) was 1515.2 ± 0.64 m/s and the speed of sound (20000 kPa, m1 = 0.02283) was 1531.6 ± 0.64 m/s. The speed of sound (20000 kPa, m1 = 0.0239) was 1531.7 ± 0.64 m/s, the speed of sound (20000 kPa, m1 = 0.02481) was 1531.7 ± 0.64 m/s and the speed of sound (20000 kPa, m1 = 0.02661) was 1531.9 ± 0.64 m/s. It also gave a speed of sound (20000 kPa, m1 = 0.02749) of 1531.9 ± 0.64 m/s, a speed of sound (20000 kPa, m1 = 0.02755) of 1531.9 ± 0.64 m/s and a speed of sound (20000 kPa, m1 = 0.02877) of 1532 ± 0.64 m/s. For the same compound, the speed of sound (20000 kPa, m1 = 0.02944) was 1532 ± 0.64 m/s, the speed of sound (40000 kPa, m1 = 0.02283) was 1565.2 ± 0.64 m/s and the speed of sound (40000 kPa, m1 = 0.0239) was 1565.3 ± 0.64 m/s. For the same compound, the speed of sound (40000 kPa, m1 = 0.02481) was 1565.3 ± 0.64 m/s, the speed of sound (40000 kPa, m1 = 0.02661) was 1565.5 ± 0.64 m/s and the speed of sound (40000 kPa, m1 = 0.02749) was 1565.5 ± 0.64 m/s. It also gave a speed of sound (40000 kPa, m1 = 0.02755) of 1565.5 ± 0.64 m/s, a speed of sound (40000 kPa, m1 = 0.02877) of 1565.6 ± 0.64 m/s and a speed of sound (40000 kPa, m1 = 0.02944) of 1565.6 ± 0.64 m/s. It also gave a speed of sound (60000 kPa, m1 = 0.02283) of 1598.7 ± 0.64 m/s, a speed of sound (60000 kPa, m1 = 0.0239) of 1598.8 ± 0.64 m/s and a speed of sound (60000 kPa, m1 = 0.02481) of 1598.9 ± 0.64 m/s. The speed of sound (60000 kPa, m1 = 0.02661) was 1599 ± 0.64 m/s, the speed of sound (60000 kPa, m1 = 0.02749) was 1599 ± 0.64 m/s and the speed of sound (60000 kPa, m1 = 0.02755) was 1599 ± 0.64 m/s. For the same compound, the speed of sound (60000 kPa, m1 = 0.02877) was 1599.1 ± 0.64 m/s, the speed of sound (60000 kPa, m1 = 0.02944) was 1599.2 ± 0.64 m/s and the speed of sound (80000 kPa, m1 = 0.02283) was 1632.1 ± 0.64 m/s. It also gave a speed of sound (80000 kPa, m1 = 0.0239) of 1632.1 ± 0.65 m/s, a speed of sound (80000 kPa, m1 = 0.02481) of 1632.2 ± 0.65 m/s and a speed of sound (80000 kPa, m1 = 0.02661) of 1632.3 ± 0.65 m/s. It also gave a speed of sound (80000 kPa, m1 = 0.02749) of 1632.4 ± 0.65 m/s, a speed of sound (80000 kPa, m1 = 0.02755) of 1632.4 ± 0.65 m/s and a speed of sound (80000 kPa, m1 = 0.02877) of 1632.5 ± 0.65 m/s. It also gave a speed of sound (80000 kPa, m1 = 0.02944) of 1632.5 ± 0.65 m/s, a speed of sound (100000 kPa, m1 = 0.02283) of 1665.2 ± 0.65 m/s and a speed of sound (100000 kPa, m1 = 0.0239) of 1665.3 ± 0.65 m/s. The speed of sound (100000 kPa, m1 = 0.02481) was 1665.3 ± 0.65 m/s, the speed of sound (100000 kPa, m1 = 0.02661) was 1665.5 ± 0.65 m/s and the speed of sound (100000 kPa, m1 = 0.02749) was 1665.5 ± 0.65 m/s. It also gave a speed of sound (100000 kPa, m1 = 0.02755) of 1665.5 ± 0.65 m/s, a speed of sound (100000 kPa, m1 = 0.02877) of 1665.6 ± 0.65 m/s and a speed of sound (100000 kPa, m1 = 0.02944) of 1665.6 ± 0.65 m/s.

For `Nc1nc(O)c2ncn([C@H]3C[C@H](O)[C@@H](CO)O3)c2n1` [2'-deoxyguanosine] + O, the speed of sound (100 kPa, m1 = 0.009827) was 1497.4 ± 1.5 m/s, the speed of sound (100 kPa, m1 = 0.01011) was 1497.4 ± 1.5 m/s and the speed of sound (100 kPa, m1 = 0.01028) was 1497.4 ± 1.5 m/s. The speed of sound (100 kPa, m1 = 0.0103) was 1497.4 ± 1.5 m/s, the speed of sound (100 kPa, m1 = 0.01048) was 1497.4 ± 1.5 m/s and the speed of sound (100 kPa, m1 = 0.01051) was 1497.4 ± 1.5 m/s. The speed of sound (100 kPa, m1 = 0.01057) was 1497.4 ± 1.5 m/s, the speed of sound (100 kPa, m1 = 0.0107) was 1497.5 ± 1.5 m/s and the speed of sound (10000 kPa, m1 = 0.0103) was 1514 ± 0.63 m/s. For the same compound, the speed of sound (10000 kPa, m1 = 0.01043) was 1514 ± 0.63 m/s, the speed of sound (10000 kPa, m1 = 0.01048) was 1514 ± 0.63 m/s and the speed of sound (10000 kPa, m1 = 0.01059) was 1514.1 ± 0.63 m/s. For the same compound, the speed of sound (10000 kPa, m1 = 0.01062) was 1514.1 ± 0.63 m/s, the speed of sound (10000 kPa, m1 = 0.01068) was 1514.1 ± 0.63 m/s and the speed of sound (10000 kPa, m1 = 0.01075) was 1514.1 ± 0.63 m/s. The speed of sound (20000 kPa, m1 = 0.0103) was 1530.8 ± 0.64 m/s, the speed of sound (20000 kPa, m1 = 0.01036) was 1530.8 ± 0.64 m/s and the speed of sound (20000 kPa, m1 = 0.01043) was 1530.8 ± 0.64 m/s. It also gave a speed of sound (20000 kPa, m1 = 0.01048) of 1530.8 ± 0.64 m/s, a speed of sound (20000 kPa, m1 = 0.01059) of 1530.9 ± 0.64 m/s and a speed of sound (20000 kPa, m1 = 0.01062) of 1530.9 ± 0.64 m/s. The speed of sound (20000 kPa, m1 = 0.01068) was 1530.9 ± 0.64 m/s, the speed of sound (20000 kPa, m1 = 0.01075) was 1530.9 ± 0.64 m/s and the speed of sound (40000 kPa, m1 = 0.0103) was 1564.4 ± 0.64 m/s. The speed of sound (40000 kPa, m1 = 0.01036) was 1564.4 ± 0.64 m/s, the speed of sound (40000 kPa, m1 = 0.01043) was 1564.4 ± 0.64 m/s and the speed of sound (40000 kPa, m1 = 0.01048) was 1564.4 ± 0.64 m/s. The speed of sound (40000 kPa, m1 = 0.01062) was 1564.4 ± 0.64 m/s, the speed of sound (40000 kPa, m1 = 0.01075) was 1564.4 ± 0.64 m/s and the speed of sound (60000 kPa, m1 = 0.0103) was 1597.9 ± 0.64 m/s. For the same compound, the speed of sound (60000 kPa, m1 = 0.01036) was 1597.9 ± 0.64 m/s, the speed of sound (60000 kPa, m1 = 0.01043) was 1597.9 ± 0.64 m/s and the speed of sound (60000 kPa, m1 = 0.01048) was 1597.9 ± 0.64 m/s. It also gave a speed of sound (60000 kPa, m1 = 0.01059) of 1597.9 ± 0.64 m/s, a speed of sound (60000 kPa, m1 = 0.01062) of 1597.9 ± 0.64 m/s and a speed of sound (60000 kPa, m1 = 0.01068) of 1597.9 ± 0.64 m/s. The speed of sound (60000 kPa, m1 = 0.01075) was 1597.9 ± 0.64 m/s, the speed of sound (80000 kPa, m1 = 0.0103) was 1631.3 ± 0.65 m/s and the speed of sound (80000 kPa, m1 = 0.01036) was 1631.3 ± 0.64 m/s. The speed of sound (80000 kPa, m1 = 0.01043) was 1631.3 ± 0.64 m/s, the speed of sound (80000 kPa, m1 = 0.01048) was 1631.3 ± 0.64 m/s and the speed of sound (80000 kPa, m1 = 0.01059) was 1631.3 ± 0.64 m/s. It also gave a speed of sound (80000 kPa, m1 = 0.01062) of 1631.3 ± 0.64 m/s, a speed of sound (80000 kPa, m1 = 0.01068) of 1631.3 ± 0.64 m/s and a speed of sound (80000 kPa, m1 = 0.01075) of 1631.3 ± 0.64 m/s. It also gave a speed of sound (100000 kPa, m1 = 0.0103) of 1664.4 ± 0.65 m/s, a speed of sound (100000 kPa, m1 = 0.01036) of 1664.4 ± 0.65 m/s and a speed of sound (100000 kPa, m1 = 0.01043) of 1664.4 ± 0.65 m/s. For the same compound, the speed of sound (100000 kPa, m1 = 0.01048) was 1664.4 ± 0.65 m/s, the speed of sound (100000 kPa, m1 = 0.01059) was 1664.5 ± 0.65 m/s and the speed of sound (100000 kPa, m1 = 0.01062) was 1664.5 ± 0.65 m/s. It also gave a speed of sound (100000 kPa, m1 = 0.01068) of 1664.5 ± 0.65 m/s and a speed of sound (100000 kPa, m1 = 0.01075) of 1664.5 ± 0.65 m/s.
